{"source": "patent US20200275650A1", "about": "“NOVEL POLYMER COATED CHLO[…]” (priority 2017, published 2020)", "origin": "cited, not measured here", "conditions": "technical chlorothalonil; well documented"}
{"smiles": "N#Cc1c(Cl)c(Cl)c(Cl)c(C#N)c1Cl", "note": "[technical chlorothalonil, chlorothalonil]", "values": [{"measurement": "Median Lethal Concentration (acute inhalation toxicity)", "result": 0.1, "unit": "mg/L"}]}
